Experiments:
Format in all cases: biochemical
DYRK1A = molecular target: T1, DYRK1A (Homo sapiens, UniProt Q13627); experiment: Inhibition test on activity of DYRK family, mobility shift assay (MSA), DYRK1A; conditions: ATP 100 μM, FITC-labeled DYRKtide peptide substrate, room temperature 1 hour; for IC50: read-out: Inhibitory Activity 1a (IC50 against DYRK1A)
T1 construct: purchased Carna Biosciences, Inc. 04-130
How it was run: (§1)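 FITC-DYRKtide phosphorylation in 20 mM HEPES pH 7.5 with MgCl2; ATP in the substrate mix was 100 μM (DYRK1A), 200 μM (DYRK1B), 40 μM (DYRK2) or 20 μM (DYRK3). Reactions ran 1 h at room temperature; inhibition from P/(P+S) versus blank and DMSO control, IC50 by regression on log concentration.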

DYRK2 = molecular target: T2, DYRK2 (Homo sapiens, UniProt Q92630); experiment: Inhibition test on activity of DYRK family, mobility shift assay (MSA), DYRK2; conditions: ATP 40 μM, FITC-labeled DYRKtide peptide substrate, room temperature 1 hour; for IC50: read-out: Inhibitory Activity 2 (IC50 against DYRK2)
T2 construct: purchased Carna Biosciences, Inc. 04-132
T2 sequence (Q92630 1-601): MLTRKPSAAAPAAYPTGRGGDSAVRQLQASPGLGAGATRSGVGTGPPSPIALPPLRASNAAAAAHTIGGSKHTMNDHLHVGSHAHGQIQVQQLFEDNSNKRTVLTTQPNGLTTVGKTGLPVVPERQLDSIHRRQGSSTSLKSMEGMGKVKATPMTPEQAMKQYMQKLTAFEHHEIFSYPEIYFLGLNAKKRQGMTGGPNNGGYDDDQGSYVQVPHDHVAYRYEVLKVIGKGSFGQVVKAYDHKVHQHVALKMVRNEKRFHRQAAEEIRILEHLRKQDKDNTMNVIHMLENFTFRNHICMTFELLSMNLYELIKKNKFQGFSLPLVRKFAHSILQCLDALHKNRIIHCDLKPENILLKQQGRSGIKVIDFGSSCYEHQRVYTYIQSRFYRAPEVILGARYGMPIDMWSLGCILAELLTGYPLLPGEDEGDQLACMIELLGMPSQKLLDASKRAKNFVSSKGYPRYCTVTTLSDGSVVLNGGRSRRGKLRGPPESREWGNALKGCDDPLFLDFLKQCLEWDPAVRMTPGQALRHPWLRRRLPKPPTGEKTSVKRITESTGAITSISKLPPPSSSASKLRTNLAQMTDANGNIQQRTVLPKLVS
How it was run: as §1

DYRK3 = molecular target: T3, DYRK3 (Homo sapiens, UniProt O43781); experiment: Inhibition test on activity of DYRK family, mobility shift assay (MSA), DYRK3; conditions: ATP 20 μM, FITC-labeled DYRKtide peptide substrate, room temperature 1 hour; for IC50: read-out: Inhibitory Activity 3 (IC50 against DYRK3)
T3 construct: purchased Carna Biosciences, Inc. 04-133
T3 sequence (O43781 1-588): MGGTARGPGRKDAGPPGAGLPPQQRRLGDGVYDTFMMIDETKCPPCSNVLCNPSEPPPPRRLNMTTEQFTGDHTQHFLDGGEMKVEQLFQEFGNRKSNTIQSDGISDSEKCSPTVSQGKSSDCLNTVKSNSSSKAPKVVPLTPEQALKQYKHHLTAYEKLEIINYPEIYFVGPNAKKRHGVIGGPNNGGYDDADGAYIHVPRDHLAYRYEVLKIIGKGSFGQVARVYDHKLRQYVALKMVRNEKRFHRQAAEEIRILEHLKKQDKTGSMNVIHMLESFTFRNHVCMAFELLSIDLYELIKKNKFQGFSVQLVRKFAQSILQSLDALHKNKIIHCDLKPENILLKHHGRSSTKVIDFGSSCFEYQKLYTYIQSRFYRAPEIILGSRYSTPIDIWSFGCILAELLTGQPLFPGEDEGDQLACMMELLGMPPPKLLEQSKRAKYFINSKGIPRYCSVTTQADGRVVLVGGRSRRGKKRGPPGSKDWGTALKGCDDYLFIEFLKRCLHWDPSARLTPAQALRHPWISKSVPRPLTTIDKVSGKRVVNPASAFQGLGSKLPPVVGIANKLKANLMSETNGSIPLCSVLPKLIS
How it was run: as §1

CC#C[C@H]1[C@H](CC)NC(=O)N1c1nc2c3c(ccc2s1)OCC3 (single isomer, unassigned) [Example 71, trans-1-(7,8-dihydrobenzofuro[4,5-d]thiazol-2-yl)-4-ethyl-5-(prop-1-yn-1-yl)imidazolidin-2-one]
Inhibitory Activity 1a (IC50 against DYRK1A) (DYRK1A): * * *
IC50 (DYRK2): ≥ 1 µM
IC50 (DYRK3): 0.1 to 1 µM

CC#C[C@H]1[C@H](CC)NC(=O)N1c1nc2c3c(ccc2s1)OCC3 (single isomer, unassigned) [Example 72, trans-1-(7,8-dihydrobenzofuro[4,5-d]thiazol-2-yl)-4-ethyl-5-(prop-1-yn-1-yl)imidazolidin-2-one]
IC50 (DYRK1A): 0.1 to 1 µM
IC50 (DYRK2): ≥ 1 µM
IC50 (DYRK3): ≥ 1 µM

CC#C[C@@H]1[C@H](COC)NC(=O)N1c1nc2c3c(ccc2s1)OCC3 (single isomer, unassigned) [Example 74, cis-1-(7,8-dihydrobenzofuro[4,5-d]thiazol-2-yl)-4-(methoxymethyl)-5-(prop-1-yn-1-yl)imidazolidin-2-one]
Inhibitory Activity 1a (IC50 against DYRK1A) (DYRK1A): * * *
IC50 (DYRK2): 0.1 to 1 µM
IC50 (DYRK3): 0.1 to 1 µM

CC#C[C@@H]1[C@H](COC)NC(=O)N1c1nc2c3c(ccc2s1)OCC3 (single isomer, unassigned) [Example 75, cis-1-(7,8-dihydrobenzofuro[4,5-d]thiazol-2-yl)-4-(methoxymethyl)-5-(prop-1-yn-1-yl)imidazolidin-2-one]
IC50 (DYRK1A): 0.1 to 1 µM
IC50 (DYRK2): ≥ 1 µM
IC50 (DYRK3): ≥ 1 µM

CC#C[C@H]1[C@H](COC)NC(=O)N1c1nc2c3c(ccc2s1)OCC3 (single isomer, unassigned) [Example 76, trans-1-(7,8-dihydrobenzofuro[4,5-d]thiazol-2-yl)-4-(methoxymethyl)-5-(prop-1-yn-1-yl)imidazolidin-2-one]
Inhibitory Activity 1a (IC50 against DYRK1A) (DYRK1A): * *
IC50 (DYRK2): ≥ 1 µM
IC50 (DYRK3): ≥ 1 µM

CC#C[C@H]1[C@H](COC)NC(=O)N1c1nc2c3c(ccc2s1)OCC3 (single isomer, unassigned) [Example 77, trans-1-(7,8-dihydrobenzofuro[4,5-d]thiazol-2-yl)-4-(methoxymethyl)-5-(prop-1-yn-1-yl)imidazolidin-2-one]
Inhibitory Activity 1a (IC50 against DYRK1A) (DYRK1A): * *
IC50 (DYRK2): ≥ 1 µM
IC50 (DYRK3): ≥ 1 µM

CC#C[C@H]1[C@H](CF)NC(=O)N1c1nc2c3c(ccc2s1)OCC3 (single isomer, unassigned) [Example 78, trans-1-(7,8-dihydrobenzofuro[4,5-d]thiazol-2-yl)-4-(fluoromethyl)-5-(prop-1-yn-1-yl)imidazolidin-2-one]
IC50 (DYRK1A): < 0.01 µM
Inhibitory Activity 2 (IC50 against DYRK2) (DYRK2): * *
IC50 (DYRK3): 0.1 to 1 µM

CC#C[C@H]1[C@H](CF)NC(=O)N1c1nc2c3c(ccc2s1)OCC3 (single isomer, unassigned) [Example 79, trans-1-(7,8-dihydrobenzofuro[4,5-d]thiazol-2-yl)-4-(fluoromethyl)-5-(prop-1-yn-1-yl)imidazolidin-2-one]
IC50 (DYRK1A): 0.1 to 1 µM
IC50 (DYRK2): ≥ 1 µM
IC50 (DYRK3): ≥ 1 µM

CC#C[C@H]1[C@H](C)NC(=O)N1c1nc2c3c(ccc2s1)OCC3 [Example 4, (4S,5S)-1-(7,8-dihydrobenzofuro[4,5-d]thiazol-2-yl)-4-methyl-5-(prop-1-yn-1-yl)imidazolidin-2-one]
IC50 (DYRK1A): ≥ 1 µM
IC50 (DYRK2): ≥ 1 µM
IC50 (DYRK3): ≥ 1 µM

CC#C[C@@H]1[C@@H](C)NC(=O)N1c1nc2c3c(ccc2s1)OCC3 [Example 16, (4R,5R)-1-(7,8-dihydrobenzofuro[4,5-d]thiazol-2-yl)-4-methyl-5-(prop-1-yn-1-yl)imidazolidin-2-one]
Inhibitory Activity 1a (IC50 against DYRK1A) (DYRK1A): * * *
IC50 (DYRK2): ≥ 1 µM
IC50 (DYRK3): 0.1 to 1 µM

CC#C[C@H]1[C@@H](C)NC(=O)N1c1nc2c3c(ccc2s1)OCC3 [Example 17, (4R,5S)-1-(7,8-dihydrobenzofuro[4,5-d]thiazol-2-yl)-4-methyl-5-(prop-1-yn-1-yl)imidazolidin-2-one]
IC50 (DYRK1A): 0.1 to 1 µM
IC50 (DYRK2): ≥ 1 µM
IC50 (DYRK3): ≥ 1 µM

CC#C[C@@H]1[C@H](C)NC(=O)N1c1nc2c3c(ccc2s1)OCO3 [Example 23, (4S,5R)-1-([1,3]dioxolo[4′,5′:5,6]benzo[1,2-d]thiazol-7-yl)-4-methyl-5-(prop-1-yn-1-yl)imidazolidin-2-one]
Inhibitory Activity 1a (IC50 against DYRK1A) (DYRK1A): * * *
IC50 (DYRK2): 0.1 to 1 µM
IC50 (DYRK3): 0.1 to 1 µM

CC#C[C@@H]1[C@H](C)NC(=O)N1c1nc2c3c(ccc2s1)OCCO3 [Example 56, (4S,5R)-1-(7,8-dihydro-[1,4]dioxino[2′,3′:5,6]benz[1,2-d]thiazol-2-yl)-4-methyl-5-(prop-1-yn-1-yl)imidazolidin-2-one]
Inhibitory Activity 1a (IC50 against DYRK1A) (DYRK1A): * * *
IC50 (DYRK2): 0.1 to 1 µM
IC50 (DYRK3): 0.1 to 1 µM

CC#C[C@@H]1[C@H](C)NC(=O)N1c1nc2c3c(ccc2s1)OCCC3 [Example 57, (4S,5R)-1-(8,9-dihydro-7H-chromeno[5,6-d]thiazol-2-yl)-4-methyl-5-(prop-1-yn-1-yl)imidazolidin-2-one]
Inhibitory Activity 1a (IC50 against DYRK1A) (DYRK1A): * * *
IC50 (DYRK2): 0.1 to 1 µM
IC50 (DYRK3): 0.1 to 1 µM

[2H]C1([2H])Oc2ccc3sc(N4C(=O)NC[C@H]4C#CC)nc3c2O1 [Example 62, (R)-1-([1,3]dioxolo[4′,5′:5,6]benz[1,2-d]thiazol-7-yl-2,2-d2)-5-(prop-1-yn-1-yl)imidazolidin-2-one]
Inhibitory Activity 1a (IC50 against DYRK1A) (DYRK1A): * * *
IC50 (DYRK2): 0.1 to 1 µM
Inhibitory Activity 3 (IC50 against DYRK3) (DYRK3): * *

CC#CC1C(CN)NC(=O)N1c1nc2c3c(ccc2s1)OCC3 (stereo not drawn) [Example 63, 4-(aminomethyl)-1-(7,8-dihydrobenzofuro[4,5-d]thiazol-2-yl)-5-(prop-1-yn-1-yl)imidazolidin-2-one]
Inhibitory Activity 1a (IC50 against DYRK1A) (DYRK1A): * * *
IC50 (DYRK2): 0.1 to 1 µM
Inhibitory Activity 3 (IC50 against DYRK3) (DYRK3): * *

CC#C[C@H]1[C@H](C(C)C)NC(=O)N1c1nc2c3c(ccc2s1)OCC3 [Example 67, (4S,5S)-1-(7,8-dihydrobenzofuro[4,5-d]thiazol-2-yl)-4-isopropyl-5-(prop-1-yn-1-yl)imidazolidin-2-one]
IC50 (DYRK1A): ≥ 1 µM
IC50 (DYRK2): ≥ 1 µM
IC50 (DYRK3): ≥ 1 µM

CC#C[C@@H]1[C@H](C(C)C)NC(=O)N1c1nc2c3c(ccc2s1)OCC3 [Example 68, (4S,5R)-1-(7,8-dihydrobenzofuro[4,5-d]thiazol-2-yl)-4-isopropyl-5-(prop-1-yn-1-yl)imidazolidin-2-one]
Inhibitory Activity 1a (IC50 against DYRK1A) (DYRK1A): * * *
IC50 (DYRK2): ≥ 1 µM
IC50 (DYRK3): 0.1 to 1 µM

CC#C[C@H]1[C@H]([C@@H](C)O)NC(=O)N1c1nc2c3c(ccc2s1)OCC3 [Example 81, (4R,5S)-1-(7,8-dihydrobenzofuro[4,5-d]thiazol-2-yl)-4-((R)-1-hydroxyethyl)-5-(prop-1-yn-1-yl)imidazolidin-2-one]
IC50 (DYRK1A): 0.1 to 1 µM
IC50 (DYRK2): ≥ 1 µM
IC50 (DYRK3): ≥ 1 µM

CC#C[C@@H]1[C@H]([C@@H](C)O)NC(=O)N1c1nc2c3c(ccc2s1)OCC3 [Example 82, (4R,5R)-1-(7,8-dihydrobenzofuro[4,5-d]thiazol-2-yl)-4-((R)-1-hydroxyethyl)-5-(prop-1-yn-1-yl)imidazolidin-2-one]
Inhibitory Activity 1a (IC50 against DYRK1A) (DYRK1A): * * *
IC50 (DYRK2): 0.1 to 1 µM
Inhibitory Activity 3 (IC50 against DYRK3) (DYRK3): * *

From patent US20230138851A1, “NOVEL ALKYNE DERIVATIVES” (CARNA BIOSCIENCES, INC., priority 2020, published 2023)
